Where two headings read alike, the source gives them in different places.
Experiments:
[1] = tested on: Key Grass and Sedge Weeds as well as Grass Crops; assay: Post-Emergent Test II (Table 6); type: in vivo; conditions: post-emergence, 336 h, 14 days after application; for pest or weed control at 70 g/ha: 70 g ai/ha; for pest or weed control at 140 g/ha: 140 g ai/ha
Procedure, shortened: (§1)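 Visual injury ratings (0 = no injury, 100 = complete kill) taken 14 days after treatment, relative to untreated controls. Compounds, in an acetone/DMSO aqueous carrier with crop oil and surfactant, were applied by track sprayer at 187 L/ha, in a twofold dilution series from the top rate, to plants at the first to second true-leaf stage.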

[2] = tested on: Key Broadleaf Weed and Crop Species; assay: Post-Emergent Test II (Table 5); type: in vivo; conditions: post-emergence, 336 h; for pest or weed control at 70 g/ha: application rate 70 (kg ai/ha; footnote: g ai/ha); for pest or weed control at 140 g/ha: application rate 140 (kg ai/ha; footnote: g ai/ha)
Procedure, shortened: as §1

[3] = CYPSS, read-out: Visual Growth Reduction (%) 14 Days After Application CYPSS
[4] = DIGSA: crabgrass (Digitaria sanguinalis), read-out: Visual Growth Reduction (%) 14 Days After Application DIGSA
[5] = ECHSS, read-out: Visual Growth Reduction (%) 14 Days After Application ECHSS
[6] = ORYSS (crop), read-out: Visual Growth Reduction (%) 14 Days After Application ORYSS
[7] = SETFA: giant foxtail (Setaria faberi), read-out: Visual Growth Reduction (%) 14 Days After Application SETFA
[8] = SORVU: grain sorghum (Sorghum vulgare), read-out: Visual Growth Reduction (%) 14 Days After Application SORVU
[9] = TRZSS (crop), read-out: Visual Growth Reduction (%) 14 Days After Application TRZSS
[10] = ZEAMX: maize, corn (Zea mays), read-out: Visual Growth Reduction (%) 14 Days After Application ZEAMX
[11] = Abutilon theophrasti, ABUTH: velvetleaf (Abutilon theophrasti), read-out: Visual Growth Reduction (%) 14 Days After Application ABUTH
[12] = Amaranthus retroflexus, AMARE: redroot pigweed (Amaranthus retroflexus), read-out: Visual Growth Reduction (%) 14 Days After Application AMARE
[13] = Brassica napus, BRSSS: oilseed rape, canola (Brassica napus), read-out: Visual Growth Reduction (%) 14 Days After Application BRSSS
[14] = Chenopodium album, CHEAL: lambsquarters (Chenopodium album), read-out: Visual Growth Reduction (%) 14 Days After Application CHEAL
[15] = Euphorbia heterophylla, EPHHL: wild poinsettia (Euphorbia heterophylla), read-out: Visual Growth Reduction (%) 14 Days After Application EPHHL
[16] = Helianthus annuus, HELAN: sunflower (Helianthus annuus), read-out: Visual Growth Reduction (%) 14 Days After Application HELAN
[17] = Viola tricolor, VIOTR: wild pansy (Viola tricolor), read-out: Visual Growth Reduction (%) 14 Days After Application VIOTR

## COC(=O)c1nc(-c2ccc(Cl)c(F)c2OC)nc(N)c1OC [Compound 70, Methyl 6-amino-2-(4-chloro-3-fluoro-2-methoxyphenyl)-5-methoxypyrimidine-4-carboxylate]
other
  melting point: 60 to 61 °C
[1]; [3]
  pest or weed control at 70 g/ha: 0 to 29%
  pest or weed control at 140 g/ha: 0 to 29%
[1]; [4]
  pest or weed control at 70 g/ha: 0 to 29%
  pest or weed control at 140 g/ha: 0 to 29%
[1]; [5]
  pest or weed control at 70 g/ha: 0 to 29%
  pest or weed control at 140 g/ha: 0 to 29%
[1]; [6]
  pest or weed control at 70 g/ha: 0 to 29%
  pest or weed control at 140 g/ha: 0 to 29%
[1]; [7]
  pest or weed control at 70 g/ha: 0 to 29%
  pest or weed control at 140 g/ha: 0 to 29%
[1]; [8]
  pest or weed control at 70 g/ha: 0 to 29%
  pest or weed control at 140 g/ha: 0 to 29%
[1]; [9]
  pest or weed control at 70 g/ha: 0 to 29%
  pest or weed control at 140 g/ha: 0 to 29%
[1]; [10]
  pest or weed control at 70 g/ha: 0 to 29%
  pest or weed control at 140 g/ha: 0 to 29%
[2]; [11]
  pest or weed control at 70 g/ha: 85 to 94%
  pest or weed control at 140 g/ha: 60 to 74%
[2]; [12]
  pest or weed control at 70 g/ha: 95 to 100%
  pest or weed control at 140 g/ha: 95 to 100%
[2]; [13]
  pest or weed control at 70 g/ha: 95 to 100%
  pest or weed control at 140 g/ha: 95 to 100%
[2]; [14]
  pest or weed control at 70 g/ha: 95 to 100%
  pest or weed control at 140 g/ha: 95 to 100%
[2]; [15]
  pest or weed control at 70 g/ha: 0 to 29%
  pest or weed control at 140 g/ha: 0 to 29%
[2]; [16]
  pest or weed control at 70 g/ha: 95 to 100%
  pest or weed control at 140 g/ha: 95 to 100%
[2]; [17]
  pest or weed control at 70 g/ha: 0 to 29%
  pest or weed control at 140 g/ha: 0 to 29%

## COC(=O)c1nc(-c2cccnc2)c(F)c(N)c1Cl [Compound 50]
other
  melting point: 163 to 164 °C
[1]; [3]
  pest or weed control at 70 g/ha: 0 to 29%
  pest or weed control at 140 g/ha: 0 to 29%
[1]; [4]
  pest or weed control at 70 g/ha: 0 to 29%
  pest or weed control at 140 g/ha: 0 to 29%
[1]; [5]
  pest or weed control at 70 g/ha: 0 to 29%
  pest or weed control at 140 g/ha: 0 to 29%
[1]; [6]
  pest or weed control at 70 g/ha: 0 to 29%
  pest or weed control at 140 g/ha: 0 to 29%
[1]; [7]
  pest or weed control at 140 g/ha: 60 to 74%
[1]; [8]
  pest or weed control at 70 g/ha: 0 to 29%
  pest or weed control at 140 g/ha: 0 to 29%
[1]; [9]
  pest or weed control at 70 g/ha: 0 to 29%
  pest or weed control at 140 g/ha: 0 to 29%
[1]; [10]
  pest or weed control at 70 g/ha: 0 to 29%
  pest or weed control at 140 g/ha: 0 to 29%
[2]; [11]
  pest or weed control at 70 g/ha: 0 to 29%
  pest or weed control at 140 g/ha: 0 to 29%
[2]; [12]
  pest or weed control at 70 g/ha: 0 to 29%
  pest or weed control at 140 g/ha: 95 to 100%
[2]; [13]
  pest or weed control at 70 g/ha: 0 to 29%
  pest or weed control at 140 g/ha: 30 to 44%
[2]; [14]
  pest or weed control at 70 g/ha: 75 to 84%
  pest or weed control at 140 g/ha: 85 to 94%
[2]; [15]
  pest or weed control at 70 g/ha: 0 to 29%
  pest or weed control at 140 g/ha: 0 to 29%
[2]; [16]
  pest or weed control at 70 g/ha: 85 to 94%
  pest or weed control at 140 g/ha: 85 to 94%
[2]; [17]
  pest or weed control at 70 g/ha: 0 to 29%
  pest or weed control at 140 g/ha: 0 to 29%

## Nc1c(Cl)c(C(=O)O)nc(-c2ccc(C(F)(F)F)nc2)c1Cl [Compound 33]
other
  melting point: 155 to 158 °C
[1]; [3]
  pest or weed control at 70 g/ha: 95 to 100%
  pest or weed control at 140 g/ha: 95 to 100%
[1]; [4]
  pest or weed control at 70 g/ha: 45 to 59%
  pest or weed control at 140 g/ha: 60 to 74%
[1]; [5]
  pest or weed control at 70 g/ha: 60 to 74%
  pest or weed control at 140 g/ha: 60 to 74%
[1]; [6]
  pest or weed control at 70 g/ha: 0 to 29%
  pest or weed control at 140 g/ha: 0 to 29%
[1]; [7]
  pest or weed control at 70 g/ha: 75 to 84%
  pest or weed control at 140 g/ha: 75 to 84%
[1]; [8]
  pest or weed control at 70 g/ha: 75 to 84%
  pest or weed control at 140 g/ha: 75 to 84%
[1]; [9]
  pest or weed control at 70 g/ha: 30 to 44%
  pest or weed control at 140 g/ha: 45 to 59%
[1]; [10]
  pest or weed control at 70 g/ha: 60 to 74%
  pest or weed control at 140 g/ha: 60 to 74%
[2]; [11]
  pest or weed control at 70 g/ha: 0 to 29%
  pest or weed control at 140 g/ha: 0 to 29%
[2]; [12]
  pest or weed control at 70 g/ha: 60 to 74%
  pest or weed control at 140 g/ha: 95 to 100%
[2]; [13]
  pest or weed control at 70 g/ha: 0 to 29%
  pest or weed control at 140 g/ha: 30 to 44%
[2]; [14]
  pest or weed control at 70 g/ha: 85 to 94%
  pest or weed control at 140 g/ha: 85 to 94%
[2]; [15]
  pest or weed control at 70 g/ha: 75 to 84%
  pest or weed control at 140 g/ha: 75 to 84%
[2]; [16]
  pest or weed control at 70 g/ha: 85 to 94%
  pest or weed control at 140 g/ha: 95 to 100%
[2]; [17]
  pest or weed control at 70 g/ha: 0 to 29%
  pest or weed control at 140 g/ha: 0 to 29%

## COC(=O)c1nc(-c2ccc(Cl)nc2F)nc(N)c1Cl [Compound 94]
other
  melting point: 192 to 195 °C
[1]; [3]
  pest or weed control at 70 g/ha: 0 to 29%
  pest or weed control at 140 g/ha: 0 to 29%
[1]; [4]
  pest or weed control at 70 g/ha: 0 to 29%
  pest or weed control at 140 g/ha: 0 to 29%
[1]; [5]
  pest or weed control at 70 g/ha: 0 to 29%
  pest or weed control at 140 g/ha: 0 to 29%
[1]; [6]
  pest or weed control at 70 g/ha: 0 to 29%
  pest or weed control at 140 g/ha: 0 to 29%
[1]; [7]
  pest or weed control at 70 g/ha: 0 to 29%
  pest or weed control at 140 g/ha: 0 to 29%
[1]; [8]
  pest or weed control at 70 g/ha: 0 to 29%
  pest or weed control at 140 g/ha: 0 to 29%
[1]; [9]
  pest or weed control at 70 g/ha: 0 to 29%
  pest or weed control at 140 g/ha: 0 to 29%
[1]; [10]
  pest or weed control at 70 g/ha: 0 to 29%
  pest or weed control at 140 g/ha: 0 to 29%
[2]; [11]
  pest or weed control at 70 g/ha: 0 to 29%
  pest or weed control at 140 g/ha: 30 to 44%
[2]; [13]
  pest or weed control at 70 g/ha: 0 to 29%
  pest or weed control at 140 g/ha: 0 to 29%
[2]; [14]
  pest or weed control at 70 g/ha: 60 to 74%
  pest or weed control at 140 g/ha: 75 to 84%
[2]; [15]
  pest or weed control at 70 g/ha: 0 to 29%
  pest or weed control at 140 g/ha: 0 to 29%
[2]; [16]
  pest or weed control at 70 g/ha: 30 to 44%
  pest or weed control at 140 g/ha: 30 to 44%
[2]; [17]
  pest or weed control at 70 g/ha: 0 to 29%
  pest or weed control at 140 g/ha: 0 to 29%

Reference: patent US10765114B2, “4-amino-6-(pyridyl and 2-substitutedphenyl)-picolinates and 6-amino-2-(pyridyl and 2-substitutedphenyl)-pyrimidine-4-carboxylates and their use as herbicides” (Dow AgroSciences LLC, priority 2013, dated 2020)
